Data published in paper PMC12813973, “Consequences of Peptide Macrocyclization Revealed by Virus-Inspired β‑Hairpin Mimetics” (ACS Chemical Biology, 2025).
Read-outs that look alike come from different tables or passages of the source. *1 amine or outer side, *2 acyl side, *3 side chain or, on linkers, in order; H or OH if unused. Where a SMILES comes first, the peptide text is derived from it. Bridges are numbered along the chain shown (N, C = ends). [ ]: non-standard residue; d: D form. oXylylene = c1ccc(C[*:2])c(C[*:1])c1; βAla = NCCC(=O)O

Tests used:
[1] = target: T1, STAT3 (Homo sapiens, UniProt P40763); experiment: biochemical; format: binding; conditions: for KD: analyte 10 µM (1, 3, 5) or 0.5 µM (4, 6), n.b. – no binding observed; for Kd: full-length STAT3 on 4PCH chip, average of technical replicates ± SD (Fig 3E), SD, read-out: STAT3 KD (GCI waveRAPID); for kon: read-out: ka
T1 construct: STAT3: the gene encoding full-length STAT3 was codon optimised for expression in; MBP (pEXP-MBP vector) (cleaved yes); His tag (IMAC capture, removed with the fusion by TEV and reverse IMAC) (cleaved yes); made in house; host or cells: E. coli T7 Express
T1 sequence (P40763 whole entry, species assumed, the tested form may be a part): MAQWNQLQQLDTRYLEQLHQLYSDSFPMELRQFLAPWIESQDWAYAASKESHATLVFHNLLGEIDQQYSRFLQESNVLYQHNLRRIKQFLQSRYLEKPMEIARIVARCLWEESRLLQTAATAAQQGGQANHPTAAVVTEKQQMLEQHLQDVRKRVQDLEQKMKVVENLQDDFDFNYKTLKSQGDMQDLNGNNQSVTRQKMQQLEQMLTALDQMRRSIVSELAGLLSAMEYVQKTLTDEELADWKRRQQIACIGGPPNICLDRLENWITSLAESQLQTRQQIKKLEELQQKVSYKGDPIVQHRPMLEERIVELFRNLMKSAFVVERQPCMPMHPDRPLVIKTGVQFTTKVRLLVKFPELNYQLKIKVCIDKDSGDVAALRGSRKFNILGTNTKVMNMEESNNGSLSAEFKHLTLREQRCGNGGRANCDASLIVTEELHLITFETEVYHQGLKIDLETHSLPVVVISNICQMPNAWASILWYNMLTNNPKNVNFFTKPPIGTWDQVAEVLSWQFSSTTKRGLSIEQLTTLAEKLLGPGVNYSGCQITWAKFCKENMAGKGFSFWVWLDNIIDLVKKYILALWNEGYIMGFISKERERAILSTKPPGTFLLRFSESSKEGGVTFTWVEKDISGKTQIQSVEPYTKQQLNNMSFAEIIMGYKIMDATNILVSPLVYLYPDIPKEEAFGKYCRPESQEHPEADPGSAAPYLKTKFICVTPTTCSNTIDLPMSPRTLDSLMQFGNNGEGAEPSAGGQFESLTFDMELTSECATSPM
Procedure: In such PPIs, the bulk of the binding energy contribution typically stems from backbone interactions, whereas binding specificity is fine-tuned by side-chain contacts. […] We evaluated the binding kinetics of peptides to full-length STAT3 using GCI.
(§1) Grating coupled interferometry (GCI)
(§2) GCI experiments were performed on a Creoptix WaveDELTA instrument (Malvern Panalytical). Full-length STAT1 or STAT3 were immobilised on a 4PCH chip (Malvern Panalytical #4PCH-03) to a density 2000-8000 pg/mm2 using EDC/NHS activation followed by amine coupling. Briefly, proteins (500 nM) were applied onto an activated chip in 10 mM MES pH 6.5, 20 mM NaCl, after which the chip surface was passivated with 1M ethanolamine, pH 8.0.
(§3) The kinetic measurements were perfor med using 20 mM HEPES pH 7.5, 300 mM NaCl, 0.01% Tween-20, 0.0005% DMSO as running buffer. Peptides were tested at 0.5 or 10 μM concentration using the waveRAPID kinetics experiment with the tight binder or intermediate binder mode, respectively.[4] Sensorgrams were fitted in the waveControl software (Malven Panalytical) using the 1:1 kinetic model. […]
GCI sensorgrams depicting RAPID kinetics measurements and fitted kinetic models for peptide binding to full-length STAT3 immobilised on a polycarboxylate hydrogel chip (4PCH). Peptides were applied at 0.5 or 10 μM concentration using the medium or tight binders pulse sequence. The peptides that show negligible Rmax values at 10 μM analyte concentration were classified as non-binding.
(1 picture or pasted object on this page, not shown here)

[2] = target: T2, STAT1 (Homo sapiens, UniProt P42224); experiment: Grating-coupled interferometry (GCI) waveRAPID kinetics, immobilised full-length STAT1; format: binding; conditions: for Kd: 20 mM HEPES pH 7.5, 300 mM NaCl, 0.01% Tween-20, 1:1 kinetic model, average of 2–4 technical replicates ± SD, SD; for kd / kon at 0.5 µM: analyte 0.5 µM; for kon at 0.5 µM: read-out: ka
T2 construct: full-length STAT1 (Uniprot #P42224-1) was expressed in E. coli; His tag (pEXP-NHis vector) (N); made in house; host or cells: E. coli T7 Express
T2 sequence (P42224 1-750): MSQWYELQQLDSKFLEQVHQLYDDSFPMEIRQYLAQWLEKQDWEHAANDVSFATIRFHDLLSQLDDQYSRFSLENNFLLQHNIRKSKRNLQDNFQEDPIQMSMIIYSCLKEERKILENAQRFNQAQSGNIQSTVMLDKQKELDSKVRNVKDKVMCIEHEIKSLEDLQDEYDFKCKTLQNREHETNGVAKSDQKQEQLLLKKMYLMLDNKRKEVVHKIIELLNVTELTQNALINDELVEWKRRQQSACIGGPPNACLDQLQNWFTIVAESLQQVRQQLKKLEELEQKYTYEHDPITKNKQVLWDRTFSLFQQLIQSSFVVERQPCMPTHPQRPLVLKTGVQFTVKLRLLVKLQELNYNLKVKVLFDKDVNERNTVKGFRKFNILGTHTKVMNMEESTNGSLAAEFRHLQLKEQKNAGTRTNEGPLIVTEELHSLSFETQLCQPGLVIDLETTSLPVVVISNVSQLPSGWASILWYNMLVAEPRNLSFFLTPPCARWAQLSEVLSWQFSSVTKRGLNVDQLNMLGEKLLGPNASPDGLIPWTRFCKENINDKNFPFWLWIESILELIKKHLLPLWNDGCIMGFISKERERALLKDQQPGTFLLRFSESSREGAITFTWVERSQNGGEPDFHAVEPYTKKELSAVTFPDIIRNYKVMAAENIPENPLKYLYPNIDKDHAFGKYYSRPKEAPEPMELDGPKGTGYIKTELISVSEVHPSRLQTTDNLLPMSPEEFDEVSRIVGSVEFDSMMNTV
From the text: Understanding the molecular determinants of kinetic rate constants of binding (k a, k d) can aid the design of pharmacological probes with longer target engagement, which is beneficial for drug efficacy and decreased toxicity. , We characterized the binding kinetics of 018-derived macrocycles by using grating-coupled interferometry (GCI). We used waveRAPID, a regeneration-free kinetic binding assay that applies sequential analyte pulses of increasing duration onto a GCI biosensor surface with an immobilized target (Figures A, and S3,S4, Table S2).
as §1, §2, §3

[3] = Solubility as required for ITC titration; format: physicochemical; conditions: ITC needs approximately 100-200 μM peptide in reaction buffer with 2% DMSO
[4] = target: T2, STAT1; experiment: Fluorescence polarization competition assay with fluorescein-labelled pIFNGR1 docking site peptide probe; format: binding; conditions: 10 nM fluorescein pIFNGR1 probe, STAT1 1.5 μM, 20 mM Tris pH 8.0, 300 mM NaCl, 0.1% Tween-20, 0.5 mM TCEP, 2.5% DMSO, room temperature; four parameter logistic fit; read-out: IC50 (FP competition, pIFNGR1 probe displacement)
[5] = target: T2, STAT1; experiment: Isothermal titration calorimetry (ITC) of peptide binding to STAT1; conditions: average of 2–3 technical replicates, read-out: KD (ITC, summary Fig 2B)
Procedure: To determine affinities and thermodynamic profiles of binding, we performed isothermal titration calorimetry (ITC) experiments for peptides 1, 2, 3, 4, 7, and 8 (Figures A,B and S1,S2, Table S1). […] The experiments were repeated in two different buffer systems, TBST (50 mM Tris pH 8.0, 300 mM NaCl, 0.01% Tween-20) and PBST ([…], 150 mM NaCl, 0.01% Tween-20), to account for possible buffer protonation enthalpy artifacts. […]
Isothermal titration calorimetry (ITC)
ITC experiments were performed using a PEAQ ITC instrument (Malvern Panalytical) in either TBST (50 mM Tris pH 8.0, 300 mM NaCl, 0.5 mM TCEP, 0.01% Tween -20) or PBST (10 mM sodium phosphate pH 7.4, 150 mM NaCl, 0.01% Tween -20) as reaction buffers. STAT1 protein was buffer -exchanged into reaction buffer supplemented with 2% DMSO on a NAP -5 deslating column (Cytiv a #17085301) and its concentration was adjusted to 10 or 20 μM.
Peptides were diluted in reaction buffer from DMSO stocks to a matching 2% DMSO concentration. Peptide concentrations were adjusted to approximately 100-200 μM. ITC experiments were performed with STAT1 in the cell and peptides in the syringe at 25°C, with 750 RPM stirring, DP = 4 μcal/sec. 18 injections of 2 μl were performed over a 50 min titration.
Thermogram integra tion and isotherm fitting were performed using the PEAQ ITC analysis software (Malvern Panalytical ). Isotherms were fitted using a 1:1 binding model. Due to challenges in determining peptide concentrations with high accuracy , protein concentrations and stoichiometry (N=1.0) were kept constant during isotherm fitting, whereas peptide concentrations were allowed to vary. Fixing a single reactant concentration during fitting is acceptable given the sufficiently high C -values and isotherm curvature observed in the […]
Offset subtraction was implemented to remove injection heats.

[6] = target: Peptide 4 (bicyclic: head-to-tail plus o-xylyl C15/C26 cross-link) residue 15 to Cys (native residue not given); K26C; both S-alkylated by the o-xylyl bridge; experiment: isothermal titration calorimetry (ITC); conditions: pH 8.0; 300 mM NaCl; 50 mM Tris pH 8.0 (TBST)
[7] = target: Peptide 2 (head-to-tail monocyclic 018 11-30) none (wild-type side chains; added beta-Ala-beta-Ala linker); experiment: isothermal titration calorimetry (ITC); conditions: pH 8.0; 300 mM NaCl; 50 mM Tris pH 8.0 (TBST)
[8] = replicate 1 (first listed run, Table S2)
[9] = replicate 2 (second listed run, Table S2)
[10] = replicate 3 (third listed run, Table S2)
[11] = replicate 4 (fourth listed run, Table S2)

For `CC[C@H](C)[C@H](NC(=O)[C@H](Cc1ccccc1)NC(=O)[C@@H](NC(=O)[C@H](CS)NC(=O)[C@H](Cc1c[nH]c2ccccc12)NC(=O)[C@H](CCSC)NC(C)=O)C(C)C)C(=O)N[C@@H](Cc1c[nH]cn1)C(=O)NCC(=O)N[C@@H](Cc1c[nH]cn1)C(=O)N[C@@H](CC(=O)O)C(=O)NCC(=O)N[C@@H](CO)C(=O)N[C@@H](CC(N)=O)C(=O)N[C@@H](CCCCN)C(=O)NCC(=O)N[C@@H](CO)C(=O)N[C@@H](CCCCN)C(=O)N[C@@H](CS)C(=O)N[C@@H](Cc1ccc(O)cc1)C(=O)N[C@H](C(N)=O)[C@@H](C)O` [Peptide 5], the KD [1, 8] was “n.b”, the KD [1, 9] was “n.b” and the “STAT3 binding (GCI), in words” value ([1]; full-length STAT3, negligible Rmax at 10 μM classified as non-binding) was “not detected”. The Kd [2] was 31.9 ± 4.3 nM, the kd [2, 8] was 0.0123 s⁻¹ and the kon at 0.5 µM [2, 8] was 351000 M⁻¹ s⁻¹. The kd [2, 9] was 0.0132 s⁻¹, the kon at 0.5 µM [2, 9] was 457000 M⁻¹ s⁻¹ and the “solubility (for ITC titration)” value [3] was “insufficient solubility”.

`CC[C@H](C)[C@@H]1NC(=O)[C@H](Cc2ccccc2)NC(=O)[C@H](C(C)C)NC(=O)[C@@H](NC(=O)[C@H](Cc2c[nH]c3ccccc23)NC(=O)[C@H](CCSC)NC(C)=O)CSCc2ccccc2CSC[C@@H](C(=O)N[C@@H](Cc2ccc(O)cc2)C(=O)N[C@H](C(N)=O)[C@@H](C)O)NC(=O)[C@H](CCCCN)NC(=O)[C@H](CO)NC(=O)CNC(=O)[C@H](CCCCN)NC(=O)[C@H](CC(N)=O)NC(=O)[C@H](CO)NC(=O)CNC(=O)[C@H](CC(=O)O)NC(=O)[C@H](Cc2c[nH]cn2)NC(=O)CNC(=O)[C@H](Cc2c[nH]cn2)NC1=O` [Peptide 6] showed a ka [1] of 280000 M⁻¹ s⁻¹, a Kd [1] of 196 ± 12 nM and a kon [1] of 252000 M⁻¹ s⁻¹. It also gave a Kd [2] of 1.3 ± 1.1 nM, a kon at 0.5 µM [2, 8] of 377000 M⁻¹ s⁻¹ and a kon at 0.5 µM [2, 9] of 304000 M⁻¹ s⁻¹. The kon at 0.5 µM [2, 10] was 186000 M⁻¹ s⁻¹, the kon at 0.5 µM [2, 11] was 384000 M⁻¹ s⁻¹ and the “solubility (for ITC titration)” value [3] was “insufficient solubility”.

`CC[C@H](C)[C@@H]1NC(=O)[C@@H]2CSCc3ccccc3CSC[C@H](NC(=O)CNC(=O)[C@H](CCCCN)NC(=O)[C@H](CC(N)=O)NC(=O)[C@H](CO)NC(=O)CNC(=O)[C@H](CC(=O)O)NC(=O)[C@H](Cc3c[nH]cn3)NC(=O)CNC(=O)[C@H](Cc3c[nH]cn3)NC1=O)C(=O)N[C@@H](CCCCN)C(=O)N[C@@H]([C@@H](C)O)C(=O)N[C@@H](Cc1ccc(O)cc1)C(=O)N[C@@H]([C@@H](C)O)C(=O)NCCC(=O)NCCC(=O)N[C@@H](CCSC)C(=O)N[C@@H](Cc1c[nH]c3ccccc13)C(=O)N[C@@H](CO)C(=O)N[C@@H](C(C)C)C(=O)N2` [Peptide 4] (cyclo(CIHGHDGSNKGCKTYT[βAla][βAla]MWSV); linker 1-12 via oXylylene) gave an IC50 [4] of 1100 nM, a ka [1] of 239000 M⁻¹ s⁻¹ and a Kd [1] of 248 ± 10.6 nM. The kon [1] was 257000 M⁻¹ s⁻¹, the Kd ([5]; PBST pH 7.4 (NaPi, 150 mM NaCl, 0.01% Tween-20)) was 14 nM and the Kd ([5]; TBST pH 8.0) was 24 nM. It also gave a kon at 0.5 µM [2, 8] of 658000 M⁻¹ s⁻¹, a kon at 0.5 µM [2, 9] of 594000 M⁻¹ s⁻¹ and a kon at 0.5 µM [2, 10] of 277000 M⁻¹ s⁻¹. It also gave a kon at 0.5 µM [2, 11] of 865000 M⁻¹ s⁻¹.

In the case of “STAT1 (signal transducer and activator of transcription 1), unphosphorylated not stated for the ITC sample”, the KD [6] is reported as 24 ± 15 nM and the KD [7] is reported as 330 ± 20 nM.
